No end group written: not given here.
Target: T1, TGFβ1 (Homo sapiens, UniProt P01137)
T1 construct: the mature TGFβ1 is released by another cut; purchased R&D Systems Europe Ltd., Abingdon, UK
Format: cell-based
Details: TGFβ1 200 pg/ml
Experimental: A line derived from mink pulmonary epithelium, MV-1-Lu, was used (CCL-64, American Type Cell Culture, Virginia, USA). The cells were grown in 162 cm^2 culture flasks (Costar Corporation, Cambridge, USA) in a stove at 37° C. and 5% CO2, until subconfluence was attained. A complete medium was used: RPMI 1640 with L-glutamine (GibcoBRL, Life Technologies Ltd., Paisley, Scotland) supplemented with 5% of foetal calf serum (FCS, Biological Industries, Kibbutz Beit Haemek, Israel), 10 mM HEPES (1M HEPES Buffer, Bio-Whittaker, Verviers, Belgium) and antibiotics (100 U/ml penicillin and 100 μ/ml streptomycin).
The MV-1-Lu cells grown as indicated above were removed from the bottom of the culture flasks using 5 ml of trypsin-EDTA (Biological Industries, Kibbutz Beit Haemek, Israel), resuspended in complete medium and centrifuged at 1500 rev/min for 8 minutes. After centrifugation the cells were resuspended in complete medium to a concentration of 50,000 cells/ml. For conducting the test, 10 ml of the cell suspension were taken and dispensed in 96-well, flat-bottom culture plates (Costar Corporation, Cambridge, USA), adding 100 μl/well, and were incubated overnight at 37° C. and 5% CO2, which permits adhesion of the cells to the bottom of the wells. […] The final concentration of FCS in the well was 2.5%. After 24 hours of incubation, 1 μCi of tritiated thymidine was added per well (25 Ci/mmol [methyl-^3H]-thymidine, Amersham Life Science, Buckinghamshire, UK) with incubation for a further 12 hours (Grubeck-Loebenstein B. et al. (1989) J. Clin. Invest. 83:764-770; Brennan F M et al. (1990) Clin. Exp. Immunol. 81:278-285).
At the end of the incubation periods the cells were removed from the bottom of the wells with trypsin-EDTA and were collected using a manual harvester (Titertek cell harvester, Skatron Instruments Inc., Sterling, USA) which ruptures the cells, collecting the DNA in nitrocellulose filters (Filter MAT 11731, Skatron Instruments Inc., Sterling, USA) where it is fixed. The filters were placed individually in 5 ml polypropylene tubes to which 4 ml of scintillation fluid was added (Biogreen-11, Reactivos Scharlau S. A., Barcelona, Spain). The activity of each tube was quantified for 90 seconds in a β LKB scintillation counter (Beta plate system, LKB, Uppsala, Sweden).
TGFβ1 is a cytokine that is able to inhibit the growth in vitro of the MV-1-Lu cell line (Grubeck-Loebenstein B. et al. (1989) J. Clin. Invest. 83:764-770; Brennan F M et al. (1990) Clin. Exp. Immunol. 81:278-285), therefore this line was used for testing the blocking effect of peptides on TGFβ1. After different combinations of media, cells and thymidine, we studied the effect of different concentrations of TGFβ1 on incorporation of [methyl-^3H]thymidine by MV-1-Lu cells in culture, for determining the most suitable conditions for the test. […]
The synthetic peptides that are potentially inhibitors of TGFβ1 activity, selected as indicated above in the section: selection of the peptides to be synthesized (both those derived from proteins that bind to TGFβ1 itself) were tested using the MV-1-Lu cell line. The selected peptides are soluble in buffered RPMI medium. The peptides were dissolved in buffered RPMI medium, free from foetal calf serum, and the following was used.
The peptides belonging to the sequence of the receptor, or complementary to the peaks of hydrophilicity of TGFβ1, were incubated for 30 minutes in the presence of this cytokine and were then combined with the cell culture. The peptides derived from the sequence of TGFβ1 were added to the cell culture prior to addition of TGFβ1, since they interact with the receptors of the cell surface. These incubations were effected in 100 μl of the same medium as was used for adding the cells. The active peptides permitted cell growth to a greater or lesser degree depending on its ability to inhibit TGFβ1.

T1 sequence (P01137 279-390): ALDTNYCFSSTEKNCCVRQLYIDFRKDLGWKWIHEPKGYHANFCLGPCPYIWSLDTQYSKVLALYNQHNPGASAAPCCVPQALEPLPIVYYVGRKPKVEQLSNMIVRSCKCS

## TSLDASIIWAMMQN [P144, ThrSerLeuAspAlaSerIleIleTrpAlaMetMetGlnAsn]
dose-response test
  dependence of the inhibitory activity on the peptide concentration: activity of the peptide decreases with the decrease in the concentration
Peptide 200 μg/ml, MV-1-Lu cells
  inhibitory activity of TGFβ1 (in words): had proved active
